Results: patent US8722849B2, “Polypeptides” (Novo Nordisk A/S, priority 2011, dated 2014)
Starred links: 1 amine or outer side, 2 acyl side, 3 side chain; linkers in the order of their positions; H or OH if unused. Positions of bridges follow the written chain, without caps; N, C: chain ends. Residues, ends and D or L forms follow the SMILES beside them. *: point of attachment. C20 diacid = O=C(O)CCCCCCCCCCCCCCCCCCC(=O)*; C18 diacid = O=C(O)CCCCCCCCCCCCCCCCC(=O)*; γGlu = O=C(O)[C@H](CCC(=O)[*:2])N[*:1]

What was measured:
[1] = Assay (III) ThT fibrillation assay for physical stability; assay type: physicochemical
How it was run: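 Freshly prepared formulations, pH-adjusted, with 1 μM ThT; four or eight replicates incubated at 37 °C under 960 rpm orbital shaking. Fluorescence (ex 444/em 485 nm) read every 20 min; […]. Peptide concentration measured by RP-HPLC before and after the run.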

food intake = assay: Assay (I) efficacy testing on appetite (food intake), ad libitum fed rat model; assay type: in vivo, Sprague Dawley (SD) rats; conditions: 3 nmol/kg
How it was run: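 Sprague Dawley rats (200–250 g), single-housed under reversed light cycle with free food and water, got one ip, po or sc dose of 0.01–3 mg/kg just before lights-off. Individual food intake recorded hourly for 7 h, then at 24 h and sometimes 48 h; groups of 5–8, Grubbs outliers excluded.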

SMILES	ThT pH 4.0 lag time (h) ([1]; ThT fibrillation assay)	ThT pH 4.0 lag time ([1]; Table 8) [h]	ThT pH 4.0 lag time ([1]; ThT fibrillation assay) [h]	Food intake reduction 0-24 h 3 nmol/kg (%) (food intake)	Food intake reduction 24-48 h 3 nmol/kg (%) (food intake)
CC[C@H](C)[C@H](NC(=O)[C@@H]1CCCN1C(=O)CNC(=O)[C@H](Cc1ccccc1)NC(=O)[C@H](CC(N)=O)NC(=O)[C@H](CC(N)=O)NC(=O)[C@H](CO)NC(=O)[C@H](CO)NC(=O)[C@H](Cc1c[nH]cn1)NC(=O)[C@H](Cc1c[nH]cn1)NC(=O)[C@H](CC(C)C)NC(=O)[C@H](Cc1ccccc1)NC(=O)[C@H](CCC(=O)O)NC(=O)[C@H](C)NC(=O)[C@H](CC(C)C)NC(=O)[C@H](CCCNC(=N)N)NC(=O)[C@H](CCC(N)=O)NC(=O)[C@@H](NC(=O)[C@H](C)NC(=O)[C@@H]1CSSC[C@H](NC(=O)[C@H](CCCCN)NC(=O)[C@H](CCC(=O)O)NC(=O)CC[C@H](NC(=O)CCCCCCCCCCCCCCCCCCC(=O)O)C(=O)O)C(=O)N[C@@H](CC(N)=O)C(=O)N[C@@H]([C@@H](C)O)C(=O)N[C@@H](C)C(=O)N[C@@H]([C@@H](C)O)C(=O)N1)[C@@H](C)O)C(=O)N[C@@H](CC(C)C)C(=O)N1CCC[C@H]1C(=O)N1CCC[C@H]1C(=O)N[C@H](C(=O)N[C@@H](CC(N)=O)C(=O)N[C@H](C(=O)NCC(=O)N[C@@H](CO)C(=O)N[C@@H](CC(N)=O)C(=O)N[C@H](C(=O)N[C@@H](Cc1ccc(O)cc1)C(N)=O)[C@@H](C)O)C(C)C)[C@@H](C)O [Example 26, N-alpha-[(S)-4-Carboxy-4-(19-carboxynonadecanoylamino)butyryl]-Glu-[Glu14,His17]-pramlintide] ({C20 diacid-γGlu}-EKCNTATCATQRLAEFLHHSSNNFGPILPPTNVGSNTY-NH2; disulfide 3-8 (inferred); C-terminus assumed)	2			46	39
CC[C@H](C)[C@H](NC(=O)[C@@H]1CCCN1C(=O)CNC(=O)[C@H](Cc1ccccc1)NC(=O)[C@H](CC(N)=O)NC(=O)[C@H](CC(N)=O)NC(=O)[C@H](CO)NC(=O)[C@H](CO)NC(=O)[C@H](Cc1c[nH]cn1)NC(=O)[C@H](Cc1c[nH]cn1)NC(=O)[C@H](CC(C)C)NC(=O)[C@H](Cc1ccccc1)NC(=O)[C@H](CCC(=O)O)NC(=O)[C@H](C)NC(=O)[C@H](CC(C)C)NC(=O)[C@H](CCCNC(=N)N)NC(=O)[C@H](CCC(N)=O)NC(=O)[C@@H](NC(=O)[C@H](C)NC(=O)[C@@H]1CSSC[C@H](NC(=O)[C@H](CCCCN)NC(=O)[C@H](CCC(=O)O)NC(=O)CC[C@H](NC(=O)CCCCCCCCCCCCCCCCC(=O)O)C(=O)O)C(=O)N[C@@H](CC(N)=O)C(=O)N[C@@H]([C@@H](C)O)C(=O)N[C@@H](C)C(=O)N[C@@H]([C@@H](C)O)C(=O)N1)[C@@H](C)O)C(=O)N[C@@H](CC(C)C)C(=O)N1CCC[C@H]1C(=O)N1CCC[C@H]1C(=O)N[C@H](C(=O)N[C@@H](CC(N)=O)C(=O)N[C@H](C(=O)NCC(=O)N[C@@H](CO)C(=O)N[C@@H](CC(N)=O)C(=O)N[C@H](C(=O)N[C@@H](Cc1ccc(O)cc1)C(N)=O)[C@@H](C)O)C(C)C)[C@@H](C)O [Example 42, N-alpha-[(S)-4-Carboxy-4-(17-carboxyheptadecanoylamino)butyryl]-Glu-[Glu14,His17]-pramlintide] ({C18 diacid-γGlu}-EKCNTATCATQRLAEFLHHSSNNFGPILPPTNVGSNTY-NH2; disulfide 3-8 (inferred))	7.3			45	5
CC[C@H](C)[C@H](NC(=O)[C@@H]1CCCN1C(=O)CNC(=O)[C@H](Cc1ccccc1)NC(=O)[C@H](CC(N)=O)NC(=O)[C@H](CC(N)=O)NC(=O)[C@H](CO)NC(=O)[C@H](CO)NC(=O)[C@H](Cc1c[nH]cn1)NC(=O)[C@H](Cc1c[nH]cn1)NC(=O)[C@H](CC(C)C)NC(=O)[C@H](Cc1ccccc1)NC(=O)[C@H](CCC(=O)O)NC(=O)[C@H](C)NC(=O)[C@H](CC(C)C)NC(=O)[C@H](CCCNC(=N)N)NC(=O)[C@H](CCC(N)=O)NC(=O)[C@@H](NC(=O)[C@H](C)NC(=O)[C@@H]1CSSC[C@H](NC(=O)[C@H](CCCCN)NC(=O)CC[C@H](NC(=O)CCCCCCCCCCCCCCCCC(=O)O)C(=O)O)C(=O)N[C@@H](CC(N)=O)C(=O)N[C@@H]([C@@H](C)O)C(=O)N[C@@H](C)C(=O)N[C@@H]([C@@H](C)O)C(=O)N1)[C@@H](C)O)C(=O)N[C@@H](CC(C)C)C(=O)N1CCC[C@H]1C(=O)N1CCC[C@H]1C(=O)N[C@H](C(=O)N[C@@H](CC(N)=O)C(=O)N[C@H](C(=O)NCC(=O)N[C@@H](CO)C(=O)N[C@@H](CC(N)=O)C(=O)N[C@H](C(=O)N[C@@H](Cc1ccc(O)cc1)C(N)=O)[C@@H](C)O)C(C)C)[C@@H](C)O [Example 46, N-alpha-[(S)-4-Carboxy-4-(17-carboxyheptadecanoylamino)butyryl]-[Glu14,His17]-pramlintide] ({C18 diacid-γGlu}-KCNTATCATQRLAEFLHHSSNNFGPILPPTNVGSNTY-NH2; disulfide 2-7 (inferred); C-terminus assumed)	27.9	27.9	27.9	54	27
CC[C@H](C)[C@H](NC(=O)[C@@H]1CCCN1C(=O)CNC(=O)[C@H](Cc1ccccc1)NC(=O)[C@H](CC(N)=O)NC(=O)[C@H](CC(N)=O)NC(=O)[C@H](CO)NC(=O)[C@H](CO)NC(=O)[C@H](Cc1c[nH]cn1)NC(=O)[C@H](CCCNC(=N)N)NC(=O)[C@H](CC(C)C)NC(=O)[C@H](Cc1ccccc1)NC(=O)[C@H](CCC(=O)O)NC(=O)[C@H](C)NC(=O)[C@H](CC(C)C)NC(=O)[C@H](CCCNC(=N)N)NC(=O)[C@H](CCC(N)=O)NC(=O)[C@@H](NC(=O)[C@H](C)NC(=O)[C@@H]1CSSC[C@H](NC(=O)[C@H](CCCCN)NC(=O)CC[C@H](NC(=O)CCCCCCCCCCCCCCCCCCC(=O)O)C(=O)O)C(=O)N[C@@H](CC(N)=O)C(=O)N[C@@H]([C@@H](C)O)C(=O)N[C@@H](C)C(=O)N[C@@H]([C@@H](C)O)C(=O)N1)[C@@H](C)O)C(=O)N[C@@H](CC(C)C)C(=O)N1CCC[C@H]1C(=O)N1CCC[C@H]1C(=O)N[C@H](C(=O)N[C@@H](CC(N)=O)C(=O)N[C@H](C(=O)NCC(=O)N[C@@H](CO)C(=O)N[C@@H](CC(N)=O)C(=O)N[C@H](C(=O)N[C@@H](Cc1ccc(O)cc1)C(N)=O)[C@@H](C)O)C(C)C)[C@@H](C)O [Example 50, N-alpha-[(S)-4-Carboxy-4-(19-carboxynonadecanoylamino)butyryl]-[Glu14,Arg17]-pramlintide] ({C20 diacid-γGlu}-KCNTATCATQRLAEFLRHSSNNFGPILPPTNVGSNTY-NH2; disulfide 2-7 (inferred))	>45		>45	30	8

Now from value to molecule, other results behind:

ThT pH 4.0 lag time (h) ([1]; ThT fibrillation assay)	ThT pH 4.0 lag time ([1]; Table 8) [h]	ThT pH 4.0 lag time ([1]; ThT fibrillation assay) [h]	SMILES	Food intake reduction 0-24 h 3 nmol/kg (%) (food intake)	Food intake reduction 24-48 h 3 nmol/kg (%) (food intake)
16			CC[C@H](C)[C@H](NC(=O)[C@@H]1CCCN1C(=O)CNC(=O)[C@H](Cc1ccccc1)NC(=O)[C@H](CC(N)=O)NC(=O)[C@H](CC(N)=O)NC(=O)[C@H](CO)NC(=O)[C@H](CO)NC(=O)[C@H](Cc1c[nH]cn1)NC(=O)[C@H](Cc1c[nH]cn1)NC(=O)[C@H](CC(C)C)NC(=O)[C@H](Cc1ccccc1)NC(=O)[C@H](CCC(=O)O)NC(=O)[C@H](C)NC(=O)[C@H](CC(C)C)NC(=O)[C@H](CCCNC(=N)N)NC(=O)[C@H](CCC(N)=O)NC(=O)[C@@H](NC(=O)[C@H](C)NC(=O)[C@@H]1CSSC[C@H](NC(=O)[C@H](CCCCN)NC(=O)[C@H](CCC(=O)O)NC(=O)CC[C@H](NC(=O)CCCCCCCCCCCCCCCCCCC(=O)O)C(=O)O)C(=O)N[C@@H](CC(N)=O)C(=O)N[C@@H]([C@@H](C)O)C(=O)N[C@@H](C)C(=O)N[C@@H]([C@@H](C)O)C(=O)N1)[C@@H](C)O)C(=O)N[C@@H](CC(C)C)C(=O)N1CCC[C@H]1C(=O)N1CCC[C@H]1C(=O)N[C@H](C(=O)N[C@@H](CC(N)=O)C(=O)N[C@H](C(=O)NCC(=O)N[C@@H](CO)C(=O)N[C@@H](Cc1c[nH]cn1)C(=O)N[C@H](C(=O)N[C@@H](Cc1ccc(O)cc1)C(N)=O)[C@@H](C)O)C(C)C)[C@@H](C)O [Example 56, N-alpha-[(S)-4-Carboxy-4-(19-carboxynonadecanoylamino)butyryl]-Glu-[Glu14,His17,His35]-pramlintide] ({C20 diacid-γGlu}-EKCNTATCATQRLAEFLHHSSNNFGPILPPTNVGSHTY-NH2; disulfide 3-8 (inferred))	46	21
>45		>45	CC[C@H](C)[C@H](NC(=O)[C@@H]1CCCN1C(=O)CNC(=O)[C@H](Cc1ccccc1)NC(=O)[C@H](CC(N)=O)NC(=O)[C@H](CC(N)=O)NC(=O)[C@H](CO)NC(=O)[C@H](CO)NC(=O)[C@H](Cc1c[nH]cn1)NC(=O)[C@H](CCCNC(=N)N)NC(=O)[C@H](CC(C)C)NC(=O)[C@H](Cc1ccccc1)NC(=O)[C@H](CCC(=O)O)NC(=O)[C@H](C)NC(=O)[C@H](CC(C)C)NC(=O)[C@H](CCCNC(=N)N)NC(=O)[C@H](CCC(N)=O)NC(=O)[C@@H](NC(=O)[C@H](C)NC(=O)[C@@H]1CSSC[C@H](NC(=O)[C@H](CCCCN)NC(=O)[C@H](Cc2c[nH]cn2)NC(=O)CC[C@H](NC(=O)CCCCCCCCCCCCCCCCC(=O)O)C(=O)O)C(=O)N[C@@H](CC(N)=O)C(=O)N[C@@H]([C@@H](C)O)C(=O)N[C@@H](C)C(=O)N[C@@H]([C@@H](C)O)C(=O)N1)[C@@H](C)O)C(=O)N[C@@H](CC(C)C)C(=O)N1CCC[C@H]1C(=O)N1CCC[C@H]1C(=O)N[C@H](C(=O)N[C@@H](CC(N)=O)C(=O)N[C@H](C(=O)NCC(=O)N[C@@H](CO)C(=O)N[C@@H](Cc1c[nH]cn1)C(=O)N[C@H](C(=O)N[C@@H](Cc1ccc(O)cc1)C(N)=O)[C@@H](C)O)C(C)C)[C@@H](C)O [Example 71, N-alpha-[(S)-4-Carboxy-4-(17-carboxyheptadecanoylamino)butyryl]-His-[Glu14,Arg17,His35]-pramlintide] ({C18 diacid-γGlu}-HKCNTATCATQRLAEFLRHSSNNFGPILPPTNVGSHTY-NH2; disulfide 3-8 (inferred); C-terminus assumed)	10	0
